Results: patent US20230390243A1, “Compositions and Uses Thereof” (Purposeful IKE, priority 2020, published 2023)
“And” between values parts separate entries of the source, which are not always exact repeats. Equal entries are not always repeated. Where two headings read alike, the source gives them in different places.

Experiments:
Fmr1 KO mice [1] = assay: Memory and learning: Novel Object Recognition (NOR); format: in vivo; design: unit not given here; conditions: for Mean 2 (group mean), NOR: table against N_WT-V (mean 13.90), doses as E10; for Mean Diff. (N_WT-V vs. group), NOR: Dunnett's test against N_WT-V, Ergoloid 2 + Sumatriptan 10, Ergoloid 2 + Oxitriptan 40 mg/kg
Description: (§1) Fmr1 KO mice backcrossed to the FVB strain and WT littermates were used during experiments. TransnetXY Automated Genotyping (www.transnetyx.com/). TRANSNETYX, INC., 8110 Cordova Rd. Suite 119, Cordova, TN 38016, USA was used for genotyping. The animals were pretreated for 14 days. The active ingredients of Sumatriptan and Ergoloid were in a water carrier, whereas oxitriptan was in a methanol carrier.
(§2) The mice were housed in plastic cages (35×30×12 cm), 5 in each. The room temperature (21±2° C.),relative humidity (55±5%), a 12-h light-dark cycle (lights on 7 a.m.-7 p.m.) and air exchange (16 times per h) were automatically controlled. The animals had free access to commercial food pellets and water. Testing was conducted during the light phase. Ten mice per treatment group were used for the AGS experiments. Experiments were conducted in line with the requirements of the UK Animals (Scientific Procedures) Act, 1986.
(§3) All experiments were conducted with the experimenter blind to genotype and drug treatment. Separate investigators prepared and coded dosing solutions, allocated the mice to the study treatment groups, dosed the animals, and collected the Audiogenic Seizure data.
(§4) Behavior testing was conducted at 2 weeks. The behavioral tests were as follows: 1. Hyperactivity: Open field; 2. Stereotypy: Self-grooming; 3. Sociability: Three chamber partition test; 4. Memory and Learning: Novel Object Recognition; 5. Anxiety: hyponeophagia; and 6. Test of daily living: marble burying
For memory and learning, a novel object recognition (NOR) task was used to evaluate the rodents' ability to recognize a novel object in the environment. […] The task procedure consists of three phases: habituation, familiarization, and test phase (Antunes 2012).
(§5) The treatment of the mice with OX (Oxitriptan), SU (Sumatriptan), ER (Ergoloid mesylates) were according to the matrix shown below in Table 1.

[2] = cited from earlier work
Fmr1 KO mice [3] = assay: Sociability: three chamber partition test; format: in vivo; design: unit not given here; conditions: for Mean 2 (F_ group mean), Sociability / Mean Diff. (F_KO-V vs. F_ group), Sociability: F_ values; for Mean 2 (F_ group mean), Sociability / Mean 2 (N_ group mean), Sociability / Mean 2 (group mean), Sociability: KO group mean; for Mean 2 (F_ group mean), Sociability / Mean 2 (N_ group mean), Sociability: table against F_KO-V; for Mean 2 (F_ group mean), Sociability: doses as E34; for Mean Diff. (F_KO-V vs. F_ group), Sociability: Ergoloid 2 + Oxitriptan 40 mg/kg; for Mean 2 (N_ group mean), Sociability: doses as E37; for Mean 2 (group mean), Sociability: table against N_WT-V (mean 99.10), doses as E13; for Mean Diff. (N_WT-V vs. group), Sociability: Dunnett's test against N_WT-V, Ergoloid 2 + Sumatriptan 10, Ergoloid 2 + Oxitriptan 40 mg/kg
Description: as §1, §2, §3, §4
For sociability a three chamber partition test was utilized. The three-chamber paradigm test known as Crawley's sociability and preference for social novelty protocol has previously been successfully employed to study social affiliation and social memory in several inbred and mutant mouse lines. The main principle of the test was based on the free choice by a subject mouse to spend time in any of three box's compartments during two experimental sessions, including indirect contact with one or two mice with which it was unfamiliar (Kaidanovich-Beilin 2011).
as §5

Fmr1 KO mice [4] = assay: Anxiety: hyponeophagia test; format: in vivo; design: unit not given here; conditions: for Mean Diff. (KO-V vs. group), Hyponeophagia: Dunnett's test against KO-V, Ergoloid 2 + Oxitriptan 40 mg/kg; for Mean 2 (group mean), Hyponeophagia: KO group mean, n 10
Description: as §1, §2, §3, §4
For anxiety a hyponeophagia test was conducted. Mice and rats cannot vomit, due to the tightness of the cardiac sphincter of the stomach, so to overcome the problem of potential food toxicity they have evolved a strategy of first ingesting only very small amounts of novel substances. The amounts ingested then gradually increase until the animal has determined whether the substance is safe and nutritious. So the old rat-catchers would first put a palatable substance such as oatmeal, which was to be the vehicle for the toxin, in the infested area (Deacon 2011).
as §5

Fmr1 KO mice [5] = assay: Test of daily living (marble burying / nesting); format: in vivo; design: scale not given here; conditions: for Mean Diff. (KO-V vs. group), Test of daily living: Dunnett's test against KO-V, Ergoloid 2 + Oxitriptan 40 mg/kg; for Mean Diff. (KO-V vs. group), Test of daily living / Mean Diff. (WT-V vs. group), Test of daily living: Sumatriptan 20, Oxitriptan 40, Ergoloid 4 mg/kg; for Mean Diff. (WT-V vs. group), Test of daily living: Dunnett's test against WT-V, Column F Ergoloid 2 + Sumatriptan 10, Column G Ergoloid 2 + Oxitriptan 40 mg/kg; for Mean 2 (group mean), Test of daily living: KO group mean, n 10
Description: as §1, §2, §3, §4
For test of daily living, nesting was assessed as nest building is an innate behavior in rodents, even when raised in laboratory settings. Synthetic and/or natural materials (such as twine, tissue, cotton, paper, and hay) are provided as a gauge of their overall well-being and as an ancillary assessment to predict the possible decline in cognition. Typically, changes in nesting behaviors, such as failure to create a nest, indicate a change in health or welfare. In addition, nesting behavior is sensitive to many environmental and physiological challenges, as well as many genetic mutations underlying pathological disease states (Gaskill 2013).
as §5

Fmr1 KO mice [6] = assay: Open field test (hyperactivity); format: in vivo; design: unit not given here; conditions: for Mean 2 (group mean), Open Field: KO group mean, n 10
Description: as §1, §2, §3, §4
For hyperactivity, the open field test (OFT) is a common measure of exploratory behavior and general activity in both mice and rats, where both the quality and quantity of the activity can be measured. Principally, the open field (OF) is an enclosure, generally square, rectangular, or circular in shape with surrounding walls that prevent escape. The OFT is also commonly used as a mechanism to assess the sedative, toxic, or stimulant effects of compounds (Gould 2009).
as §5

[7] = system: patients with autism or Asperger's disorder; conditions: versus placebo; cited from earlier work
Fmr1 KO mice [8] = assay: Stereotypy: self-grooming; format: in vivo; design: unit not given here; conditions: for Mean Diff. (KO-V vs. group), Stereotypy: Dunnett's test against KO-V; for Mean Diff. (KO-V vs. group), Stereotypy / Data table Stereotypy (individual animals): Sumatriptan 20, Oxitriptan 40, Ergoloid 4 mg/kg, Ergoloid 2 + Oxitriptan 40 mg/kg; for Data table Stereotypy (individual animals): KO mice, one value per animal
Description: as §1, §2, §3, §4
For stereotypy, self-grooming was assessed. Self-grooming in animals is an innate behaviour that is involved in hygiene maintenance and other physiologically important processes, including thermoregulation, social communication and de-arousal. It is one of the most frequently observed behaviours in awake rodents and has a patterned, sequential organization with characteristic cephalocaudal progression (Kalueff 2016).
as §5

FMR1 mice = assay: Behavioral experiments, FXS phenotypes overall; format: in vivo; conditions: summary statement
Description: as §1, §4, §5

[9] = Fmr1 KO mice, Sumatriptan 20 mg/kg, F column, individual animals
[10] = Fmr1 KO mice, Sumatriptan 20 mg/kg, individual animals
[11] = N_ values, Dunnett's test against F_KO-V, Sumatriptan 20, Oxitriptan 40, Ergoloid 4 mg/kg, Column N Ergoloid 2 + Oxitriptan 40 mg/kg
[12] = N_ values, Sumatriptan 20, Oxitriptan 40, Ergoloid 4 mg/kg
[13] = Dunnett's test against F_KO-V, Sumatriptan 20, Oxitriptan 40, Ergoloid 4 mg/kg
[14] = Sumatriptan 20, Oxitriptan 40, Ergoloid 4 mg/kg
[15] = table against KO-V (mean 237.3), doses as E22
[16] = table against WT-V (mean 145.5), doses as E4
[17] = table against KO-V (mean 1.200), doses as E25
[18] = table against WT-V (mean 4.800), doses as E7
[19] = table against KO-V (mean 8263), doses as E16
[20] = table against WT-V (mean 4207), doses as E1
[21] = Fmr1 KO mice, Oxitriptan 40 mg/kg, F column, individual animals
[22] = Fmr1 KO mice, Oxitriptan 40 mg/kg, individual animals

Structure (SMILES) | Mean 2 (group mean), NOR (Fmr1 KO mice [1]; N_ values, KO group mean) | Mean Diff. (N_WT-V vs. group), NOR (Fmr1 KO mice [1]; [12]) | Mean 2 (F_ group mean), Sociability (Fmr1 KO mice [3]) | Mean Diff. (F_KO-V vs. F_ group), Sociability (Fmr1 KO mice [3]; [13]) | Mean 2 (N_ group mean), Sociability (Fmr1 KO mice [3]; N_ values) | Mean 2 (group mean), Sociability (Fmr1 KO mice [3]; N_ values) | Mean Diff. (N_WT-V vs. group), Sociability (Fmr1 KO mice [3]; [12]) | Mean Diff. (KO-V vs. group), Hyponeophagia (Fmr1 KO mice [4]; [14]) | Mean 2 (group mean), Hyponeophagia (Fmr1 KO mice [4]; [15]) | Mean 2 (group mean), Hyponeophagia (Fmr1 KO mice [4]; [16]) | Mean Diff. (KO-V vs. group), Test of daily living (Fmr1 KO mice [5]) | Mean Diff. (WT-V vs. group), Test of daily living (Fmr1 KO mice [5]) | Mean 2 (group mean), Test of daily living (Fmr1 KO mice [5]; [17]) | Mean 2 (group mean), Test of daily living (Fmr1 KO mice [5]; [18]) | Mean 2 (group mean), Open Field (Fmr1 KO mice [6]; [19]) | Mean 2 (group mean), Open Field (Fmr1 KO mice [6]; [20]) | Mean Diff. (KO-V vs. group), Stereotypy (Fmr1 KO mice [8]) | Data table Stereotypy (individual animals) (Fmr1 KO mice [8]) | other results
CNS(=O)(=O)Cc1ccc2[nH]cc(CCN(C)C)c2c1 [Sumatriptan, 1-[3-[2-(dimethylamino)ethyl]-1H-indol-5-yl]-N-methylmethanesulfonamide] | 7.300 | 6.600 | 62.20 | 19.40 | 98.20 | 98.20 | 0.9000 | 82.60 | 154.7 | 154.7 | −3.500 | 0.1000 | 4.700 | 4.700 | 7416 | 7416 | 14.60 | 29 and 35 and 31 (2×) and 30 (3×) and 32 and 28 and 33 | Mean Diff. (F_KO-V vs. F_ group), NOR (Fmr1 KO mice [1]; F_ values, Dunnett's test against F_KO-V, Sumatriptan 20, Oxitriptan 40, Ergoloid 4 mg/kg, Ergoloid 2 + Oxitriptan 40 mg/kg): −0.2000; Novel Object Recognition, F_KO-Sumatriptan (Fmr1 KO mice [1]; [9]): 9 (2×) and 5 (2×) and 8 (2×) and 7 (2×) and 4 and 6; Novel Object Recognition, N_KO-Sumatriptan (Fmr1 KO mice [1]; [10]): 6 (2×) and 8 (2×) and 9 (3×) and 5 and 7; Mean Diff. (F_KO-V vs. N_ group), NOR (Fmr1 KO mice [1]; [11]): −0.7000; half life ([2]; administered orally): 1.7 h; half life ([2]; administered subcutaneous): 1.9 h; Sociability, F_KO-Sumatriptan (Fmr1 KO mice [3]; [9]): 61 (2×) and 64 and 65 (2×) and 60 (3×) and 63 (2×); Sociability, N_KO-Sumatriptan (Fmr1 KO mice [3]; [10]): 99 and 97 (2×) and 103 and 98 and 90 and 102 and 100 and 95 and 101; Mean Diff. (F_KO-V vs. N_ group), Sociability (Fmr1 KO mice [3]; [11]): −18.80; Hyponeophagia, KO-Sumatriptan (Fmr1 KO mice [4]; [10]): 154 (2×) and 157 (2×) and 148 and 153 and 155 and 158 and 159 and 152; Tests of daily living, KO-Sumatriptan (Fmr1 KO mice [5]; [10]): 5 (7×) and 4 (3×); Mean Diff. (WT-V vs. group), Open Field (Fmr1 KO mice [6]; Dunnett's test against WT-V, Sumatriptan 20 mg/kg, 5-HTP 80 mg/kg, EM 4 mg/kg, Column F Ergoloid 2 + Sumatriptan 10 mg/kg, Ergoloid 2 + Oxitriptan 40 mg/kg): −3209; GH response to sumatriptan [7]: significantly greater than to placebo; effect on FXS phenotypes (FMR1 mice): ameliorates the FXS phenotypes in FMR1 mice
N[C@@H](Cc1c[nH]c2ccc(O)cc12)C(=O)O [Oxitriptan] | 10.82 | 3.082 | 52.10 | 29.50 | 98.80 | 96.80 | 0.3000 | 91.10 | 146.2 | 146.2 | −3.700 | −0.1000 | 4.800 | 4.900 | 4720 | 4720 | 10.10 | 34 and 37 (2×) and 40 and 36 and 38 (2×) and 33 and 31 and 29 | Novel Object Recognition, F_KO-Oxitriptan (Fmr1 KO mice [1]; [21]): 6 (4×) and 5 (3×) and 9 (2×) and 8 (2×); Novel Object Recognition, N_KO-Oxitriptan (Fmr1 KO mice [1]; [22]): 10 (4×) and 12 and 14 and 8 (2×) and 15 and 13 and 9; Mean 2 (N_ group mean), NOR (Fmr1 KO mice [1]; N_ values, KO group mean, table against F_KO-V, doses as E31): 10.82; Sociability, F_KO-Oxitriptan (Fmr1 KO mice [3]; [21]): 54 and 52 (2×) and 50 (2×) and 53 (2×) and 51 and 55; Sociability, N_KO-Oxitriptan (Fmr1 KO mice [3]; [22]): 104 and 98 (2×) and 97 (2×) and 100 (2×) and 99 (2×) and 96; Mean Diff. (WT-V vs. group), Hyponeophagia (Fmr1 KO mice [4]; Dunnett's test against WT-V, Sumatriptan 20, Oxitriptan 40, Ergoloid 4 mg/kg, Column F Ergoloid 2 + Sumatriptan 10, Column G Ergoloid 2 + Oxitriptan 40 mg/kg): −0.7000; Hyponeophagia, KO-Oxitriptan (Fmr1 KO mice [4]; [22]): 151 and 145 and 150 and 140 (2×) and 147 and 143 and 152 and 148 and 146; Tests of daily living, KO-Oxitriptan (Fmr1 KO mice [5]; [22]): 5 (9×) and 4; Mean Diff. (KO-V vs. group), Open Field (Fmr1 KO mice [6]; Dunnett's test against KO-V, Sumatriptan 20, Oxitriptan 80, Ergoloid 4 mg/kg, Ergoloid 2 + Oxitriptan 40 mg/kg): 3543; Mean 2 (group mean), Stereotypy (Fmr1 KO mice [8]; KO group mean, n 10, table against KO-V (mean 45.40), doses as E19): 35.30
